We go through 1 compound from patent US8097625B2, “Combination of sedative and a neurotransmitter modulator, and methods for improving sleep quality and treating depression” (priority 2003, dated 2012).

Common to all, as to assay type: in vivo, human
Data set [1] relates to subjects with insomnia related to major depressive disorder. In words: DREAMDD clinical study: fluoxetine titration (20 mg to 40 mg at Visit 7). Conditions: for Subjects on Fluoxetine Hydrochloride 20 mg / Subjects on Fluoxetine Hydrochloride 40 mg: eszopiclone 3 mg group, ITT. As for the experimental part:
In addition, subjects were randomized at Visit 3 (end of baseline) to treatment with one of the following nightly (at bedtime): eszopiclone (3 mg) or matching placebo.
Sleep, Depression, and Productivity Questionnaires and Clinical Global Impression: The following questionnaires were administered as listed below. • Epworth Sleepiness Scale (ESS): ESS was completed by the subject at Visits 2-10. The ESS is a subjective assessment of the likelihood of falling asleep in various situations. • Insomnia Severity Index (ISI): ISI was completed by the subject at Visits 3, 5, 7, 9 and 10. The ISI is a subjective assessment of sleep quality, restedness/refreshness upon arising, daytime fatigue, attention/concentration and relationship and mood disturbances. • Work Limitations Questionnaire (WLQ): WLQ was completed by the subject at Visits 3, 5, 7, 9, and 10. The WLQ is a validated self-report instrument for measuring the degree to which chronic health problems interfere with ability to perform job roles, addressing the content of the job through a demand-level methodology. • Hamilton Depression-17: HAM-D-17 was administered via IVRS at screening and rated by a trained clinician at Visits 3, 7, 9, and 10. • SF-36: SF-36 was completed by the subject at Visits 3, 7, 9 and 10. The SF-36 represents multiple operational definitions of health, including function and dysfunction, distress and well-being, objective reports and subjective ratings, and both favorable and unfavorable self-evaluations of general health status. • Clinical Global Impression (CGI): CGI was completed by the investigator at Visits 3-10 The CGI is the investigator's subjective assessment of improvement in the subject's depressive symptoms. The response on the CGI at Visit 7 (Week 4 of double-blind treatment) was used by the investigator to assess the need for increasing the dose of fluoxetine to 40 mg daily (in the morning). […] Study Conduct
Visit 7 occurred 7 (±2) days after Visit 6. […] Double-blind dosing (at bedtime) continued nightly through Visit 9. • 1. Collected and reviewed the MEC. Recorded all changes in concurrent medications, including OTC and health and dietary supplements, and AEs that may have occurred between Visit 6 and Visit 7. • 2. […] Subjects completed the ESS, 1SI, WLQ, and SF-36 questionnaires prior to performing any other study related procedures. The questionnaires were reviewed for completeness by study staff. Any items left blank were returned to the subject for completion. • 4. A trained clinician administered the Hamilton-D-17 to assess depression symptoms. • 5. The investigator completed the Clinical Global Impression. […] If an increased dose of fluoxetine was required, the investigator dispensed the double-blind blister pack containing the 40 mg dose of fluoxetine. • 6. Dispensed the appropriate Visit 7 double-blind blister pack. […] Note: only one Visit 7 blister card was dispensed. • 7. Obtained vital signs (seated) and weight. • 8. Obtained blood and urine samples for clinical laboratory assessments including urinalysis, urine drug and alcohol screen, and a serum pregnancy tests on all women. • 9. Reviewed use of IVRS and the schedule for calling. Subjects call the IVRS the morning following this visit and on the morning of Visit 8 (prior to the visit). • 10. Issued MEC and instruct the subject on its use. • 11. Scheduled Visit 8 in 14 (±2) days. Visit 8 (Double-Blind Treatment Week 6)

Data set [2] in a line: DREAMDD clinical study: tolerability and adverse events. The note with it: 8 weeks. Here is the method:
Safety was assessed by physical examinations, a standard 12-lead ECG, vital signs, clinical laboratory assessments and AE reporting.
Adverse Events (AEs): Subjects were queried in a non-leading manner, without specific prompting (e.g., “How are you feeling?”) to assess whether they are suffering from any adverse events.
Adverse Events: All adverse experiences were coded using the COSTART dictionary (Coding Symbols for a thesaurus of Adverse Event Terms; version 5.0, 1995). Treatment emergent adverse experiences was defined as 1) AEs that occurred or worsened (increased in severity and/or frequency) on or after the first dose of study medication, 2) AEs with a missing start data and a stop date on or after the first dose of study medication, or 3) AEs with both a missing start and stop date. Treatment emergent AEs was summarized by treatment and by COSTART body system and preferred term. AEs that occurred within 14 days after treatment discontinuation was considered treatment-emergent AEs.

The nature of data set [3]: DREAMDD clinical study: subject disposition. Conditions: of 270 randomized; 3 mg nightly + fluoxetine. From the text: Subjects who discontinued early for any reason were replaced.
Subject Disposition and Drug Exposure: Subject disposition was summarized and presented for the number and percentage of subjects, who were screened, randomized, received treatment, completed the study, and discontinued early (including reasons for discontinuations). For each subject, the number of doses taken was computed from the study drug dispensation and accountability CRF records obtained at each visit, assuming that subjects took their study drug medication evenly throughout the between-visits periods. The extent of exposure to the double-blind medication as well as the number of doses taken during the double-blind treatment period was summarized with descriptive statistics and presented by treatment group.

As for `CN1CCN(C(=O)OC2c3nccnc3C(=O)N2c2ccc(Cl)cn2)CC1` (single isomer, unassigned; (+)) [Eszopiclone, (+) 6-(5-chloro-2-pyridinyl)-6,7-dihydro-7-oxo-5H-pyrrolo[3,4b]pyrazin-5-yl 4-methylpiperazine-1-carboxylate], the “Subjects on Fluoxetine Hydrochloride 20 mg” value is recorded as 125 (55.8%) n (%) in data set [1] (Visit 7 (Week 4)), 115 (54.0%) n (%) in data set [1] (Visit 8 (Week 6)) and 103 (52.8%) n (%) in data set [1] (Visit 9 (Week 8)). Further, the “Subjects on Fluoxetine Hydrochloride 40 mg” value in data set [1] (Visit 7 (Week 4)) is 99 (44.2%) n (%); in data set [1] (Visit 8 (Week 6)), 98 (46.0%) n (%); in data set [1] (Visit 9 (Week 8)), 92 (47.2%) n (%). Also, the “antidepressant dose escalation to higher dose of fluoxetine” value in data set [1] (co-administration with fluoxetine vs placebo) is recorded as “less patients in this study required antidepressant dose escalation”. Also, the Fluoxetine dose increases in data set [1] (p<0.05 vs placebo, 3 mg nightly + fluoxetine) was 44%. Besides, the “unpleasant taste compared to placebo” value in data set [2] (3 mg QHS + fluoxetine QAM) was “more common”. In data set [2] (3 mg nightly + fluoxetine), the “drop-outs due to AEs versus placebo” value is “comparable”. In data set [2] (3 mg nightly + fluoxetine, MDD and insomnia), the “tolerability of co-administration with fluoxetine” value was “well-tolerated”. Besides, in data set [3], the “Subject Disposition: Discontinued, AE” value was 17 (6.3) n (%). In data set [3], the “Subject Disposition: Discontinued, Treatment for Insomnia Failure” value is 2 (0.7) n (%).
